Results published in paper PMC11822212, “High-throughput screening identifies Aurora kinase B as a critical therapeutic target for Merkel cell carcinoma” (Nature Communications, 2025).
Like-named read-outs stand apart in the source and are kept apart here.

Key:
Assay in all cases: qHTS cell viability (CellTiter-Glo, 72 h; primary and follow-up small molecule screen)
Type in all cases: cell-based, human
UISO cells (VN-MCC) = system: UISO cells (VN-MCC)
WAGA cells (VP-MCC) = system: WAGA cells (VP-MCC)
MKL-2 cells (VP-MCC) = system: MKL-2 cells (VP-MCC)
MCC13 cells (VN-MCC) = system: MCC13 cells (VN-MCC)
MCC26 cells (VN-MCC) = system: MCC26 cells (VN-MCC)
MKL-1 cells (VP-MCC) = system: MKL-1 cells (VP-MCC)

SP-600125
Area under the dose-response curve (AUC) UISO Replicate 1 (UISO cells (VN-MCC)): 425.2
Area under the dose-response curve (AUC) UISO Replicate 2 (UISO cells (VN-MCC)): 449.0
Area under the dose-response curve (AUC) UISO Replicate 3 (UISO cells (VN-MCC)): 462.0
Area under the dose-response curve (AUC) WAGA Replicate 1 (WAGA cells (VP-MCC)): 479.2
Area under the dose-response curve (AUC) WAGA Replicate 2 (WAGA cells (VP-MCC)): 486.5
Area under the dose-response curve (AUC) WAGA Replicate 3 (WAGA cells (VP-MCC)): 468.4
Area under the dose-response curve (AUC) MKL-2 Replicate 1 (MKL-2 cells (VP-MCC)): 447.3
Area under the dose-response curve (AUC) MKL-2 Replicate 2 (MKL-2 cells (VP-MCC)): 464.7
Area under the dose-response curve (AUC) MKL-2 Replicate 3 (MKL-2 cells (VP-MCC)): 498.4
Area under the dose-response curve (AUC) MCC13 Replicate 1 (MCC13 cells (VN-MCC)): 457.8
Area under the dose-response curve (AUC) MCC13 Replicate 2 (MCC13 cells (VN-MCC)): 483.0
Area under the dose-response curve (AUC) MCC13 Replicate 3 (MCC13 cells (VN-MCC)): 492.5
Area under the dose-response curve (AUC) MCC26 Replicate 1 (MCC26 cells (VN-MCC)): 435.5
Area under the dose-response curve (AUC) MCC26 Replicate 2 (MCC26 cells (VN-MCC)): 426.6
Area under the dose-response curve (AUC) MCC26 Replicate 3 (MCC26 cells (VN-MCC)): 458.4
Area under the dose-response curve (AUC) MKL-1 Replicate 1 (MKL-1 cells (VP-MCC)): 472.9
Area under the dose-response curve (AUC) MKL-1 Replicate 2 (MKL-1 cells (VP-MCC)): 491.9
Area under the dose-response curve (AUC) MKL-1 Replicate 3 (MKL-1 cells (VP-MCC)): 491.6

O=c1c(O)c(-c2ccccc2)oc2cc(O)cc(O)c12 [Galangin]
Area under the dose-response curve (AUC) UISO Replicate 1 (UISO cells (VN-MCC); follow-up screen, UISO, replicate 1): 481.0
Area under the dose-response curve (AUC) UISO Replicate 2 (UISO cells (VN-MCC); follow-up screen, UISO, replicate 2): 489.8
Area under the dose-response curve (AUC) UISO Replicate 3 (UISO cells (VN-MCC); follow-up screen, UISO, replicate 3): 457.6
Area under the dose-response curve (AUC) WAGA Replicate 1 (WAGA cells (VP-MCC); follow-up screen, WAGA, replicate 1): 519.0
Area under the dose-response curve (AUC) WAGA Replicate 2 (WAGA cells (VP-MCC); follow-up screen, WAGA, replicate 2): 499.5
Area under the dose-response curve (AUC) WAGA Replicate 3 (WAGA cells (VP-MCC); follow-up screen, WAGA, replicate 3): 488.3
Area under the dose-response curve (AUC) MKL-2 Replicate 1 (MKL-2 cells (VP-MCC); follow-up screen, MKL-2, replicate 1): 477.3
Area under the dose-response curve (AUC) MKL-2 Replicate 2 (MKL-2 cells (VP-MCC); follow-up screen, MKL-2, replicate 2): 508.2
Area under the dose-response curve (AUC) MKL-2 Replicate 3 (MKL-2 cells (VP-MCC); follow-up screen, MKL-2, replicate 3): 500.6
Area under the dose-response curve (AUC) MCC13 Replicate 1 (MCC13 cells (VN-MCC); follow-up screen, MCC13, replicate 1): 503.7
Area under the dose-response curve (AUC) MCC13 Replicate 2 (MCC13 cells (VN-MCC); follow-up screen, MCC13, replicate 2): 491.8
Area under the dose-response curve (AUC) MCC13 Replicate 3 (MCC13 cells (VN-MCC); follow-up screen, MCC13, replicate 3): 491.4
Area under the dose-response curve (AUC) MCC26 Replicate 1 (MCC26 cells (VN-MCC); follow-up screen, MCC26, replicate 1): 449.4
Area under the dose-response curve (AUC) MCC26 Replicate 2 (MCC26 cells (VN-MCC); follow-up screen, MCC26, replicate 2): 457.3
Area under the dose-response curve (AUC) MCC26 Replicate 3 (MCC26 cells (VN-MCC); follow-up screen, MCC26, replicate 3): 461.1
Area under the dose-response curve (AUC) MKL-1 Replicate 1 (MKL-1 cells (VP-MCC); follow-up screen, MKL-1, replicate 1): 490.3
Area under the dose-response curve (AUC) MKL-1 Replicate 2 (MKL-1 cells (VP-MCC); follow-up screen, MKL-1, replicate 2): 490.8
Area under the dose-response curve (AUC) MKL-1 Replicate 3 (MKL-1 cells (VP-MCC); follow-up screen, MKL-1, replicate 3): 492.0
